In patent US20190134128A1, “METHOD FOR PRODUCING CELASTROL AND PENTACYCLIC TRITERPENE DERIVATIVES” (PIERRE FABRE DERMO-COSMETIQUE, priority 2016, published 2019):
Converted amounts (≈) assume the structure as drawn.

Legend:
S. aureus CIP 4.83 = test: Antimicrobial activity (MIC/MBC) against Staphylococcus aureus; format: cell-based
[1] = system: Propionibacterium acnes (CIP 53117T); test: Antimicrobial activity (MIC/MBC, micro-method in liquid medium) against Propionibacterium acnes; format: cell-based; conditions: 24 h
Description: Activity is evaluated on Propionibacterium acnes (CIP 53117T), with an inoculation suspension at 10^8 CFU/mL. The maintenance medium is Columbia agar+5% sheep blood, with incubation for 24 hours at 36±1° C. under anaerobic conditions. The test medium is composed of Mueller Hinton broth+10% foetal calf serum (FCS) and Columbia agar+5% sheep blood, with incubation for 24 h at 36±1° C. under anaerobic conditions. The determination of minimum inhibitory concentrations (MICs) is performed by micro-method in liquid medium. 100 μL of liquid culture medium is deposited in each well of a sterile 96-well microplate. 100 μL of the product to be tested is deposited in the first well of a row. One-half dilutions are then made from wells 1 to 10. Propionibacterium acnes test suspensions are prepared extemporaneously in tryptone salt. 100 μL is deposited in each well of a second microplate, except column 11. All of the first microplate is inoculated, using a Denley multipoint inoculator, from the second microplate. After incubation, MICs are defined as the highest dilution with no visible growth. Columns 11 and 12 serve as negative and positive growth control, respectively. Two references were tested in parallel. The determination of minimum bactericidal concentrations (MBCs) is performed by subculturing MIC microplates on agar medium using the Denley multipoint inoculator. After incubation, MBC is defined as the highest dilution with no visible growth. All tests are performed in duplicate.

NFκB = test: Inhibitory activity against NFκB in HaCaT keratinocytes stimulated with TNF-alpha; format: cell-based, human; conditions: 2 μM, TNF-alpha 0.3 ng/mL
Excerpt: The transcription factor NFκB controls the expression of a large number of genes involved in regulation of the inflammatory response. […] Certain pro-inflammatory stimuli such as TNF-alpha and IL-1-beta lead to the activation of NFκB, i.e. its nuclear translocation. Once in the nucleus, NFκB will induce the transcription of pro-inflammatory genes encoding cytokines, chemokines, adhesion molecules, growth factors and inducible enzymes.
The anti-inflammatory activities of the extracts obtained from the suspensions contained in Erlenmeyer flasks E1, E2, E3 and E6 of example 8 were evaluated in vitro on human HaCaT keratinocytes according to the method described by Albanesi et al. The extracts, weighed in dry weight, were taken up in a buffer and introduced into a HaCaT cell culture solution in equivalent final concentrations (ng/mL) for each extract and incubated for 1 hour. NFκB expression is then induced by stimulation with TNF-alpha (0.3 ng/mL).

[2] = Staphylococcus aureus, CIP4, 24 h
[3] = S. aureus CIP 4.83, 36° C., 24 h
[4] = Propionibacterium acnes, anaerobic

Q: With `CC1=C(O)C(=O)C=C2C1=CC=C1[C@@]2(C)CC[C@@]2(C)[C@@H]3C[C@](C)(C(=O)O)CC[C@]3(C)CC[C@]12C` [Celastrol, celastrol] as the compound, how does the MBC (S. aureus CIP 4.83; [2]) read?
A: 0.59 µg/mL (≈ 1.31 µM)

Q: And the MIC (S. aureus CIP 4.83; [2])?
A: 0.29 µg/mL (≈ 0.644 µM)

Q: And the MBC ([1]; Cutibacterium acnes)?
A: 1.17 µg/mL (≈ 2.6 µM)

Q: What about the MIC ([1]; Cutibacterium acnes) of the same compound?
A: 0.59 µg/mL (≈ 1.31 µM)

Q: What does the source list for `C[S+](C)[O-]` [DMSO]?
A: MBC (S. aureus CIP 4.83; [3]): >5 µg/mL; MIC (S. aureus CIP 4.83; [3]): >5 µg/mL; MBC [1, 4]: 5 µg/mL (≈ 64 µM); MIC [1, 4]: 5 µg/mL (≈ 64 µM)

Q: How did the “% inhibition of NFκB expression with respect to induction of TNF-alpha” value (NFκB) turn out when `C[C@@H]1C[C@H]2[C@@H]3CCC4=CC(=O)C=C[C@]4(C)[C@@]3(F)[C@@H](O)C[C@]2(C)[C@@]1(O)C(=O)CO` [Dexamethasone] was run?
A: more than 40%

Q: And the “% inhibition of NFκB expression with respect to induction of TNF-alpha” value (NFκB; listed as Dex)?
A: 42.5%

Q: For `CC1=C(O)C(=O)C=C2C1=CC=C1[C@@]2(C)CC[C@@]2(C)C3C[C@@H](C)C(=O)C[C@]3(C)CC[C@]12C` (stereo partly drawn) [Tingenin A, tingenin A], which MBC (S. aureus CIP 4.83; [2]) is on record?
A: 2.34 µg/mL (≈ 5.56 µM)

Q: And the MIC (S. aureus CIP 4.83; [2])?
A: 1.17 to 2.34 µg/mL (≈ 2.78 to 5.56 µM)

Q: What about the MBC ([1]; Cutibacterium acnes) of the same compound?
A: 2.34 µg/mL (≈ 5.56 µM)

Q: What about the MIC ([1]; Cutibacterium acnes) of the same compound?
A: 2.34 µg/mL (≈ 5.56 µM)

Q: For `CC1=C(O)C(=O)C=C2C1=CC=C1[C@@]2(C)CC[C@@]2(C)[C@@H]3C[C@@H](C)C(=O)[C@@H](O)[C@]3(C)CC[C@]12C` [Tingenin B, tingenin B], which MBC (S. aureus CIP 4.83; [2]) is on record?
A: 1.17 µg/mL (≈ 2.68 µM)

Q: And the MIC (S. aureus CIP 4.83; [2])?
A: 0.59 µg/mL (≈ 1.35 µM)

Q: And the MBC ([1]; Cutibacterium acnes)?
A: 1.17 µg/mL (≈ 2.68 µM)

Q: And the MIC ([1]; Cutibacterium acnes)?
A: 1.17 µg/mL (≈ 2.68 µM)
